Publication PMC4607647 (Bioorganic & medicinal chemistry letters, 2015)

What was measured:
Type in all cases: biochemical
LG-PARP10cat = LG-PARP10cat (Homo sapiens, UniProt Q53GL7, L926G); settings: for increase in potency against LG-PARP10cat compared to 1: compared to parent dq scaffold 1
GFP-LG-PARP10 = GFP-LG-PARP10 (Homo sapiens, UniProt Q53GL7, L926G); settings: immunoprecipitated from HEK 293T cells, 6-alkyne-NAD+ substrate
GFP-WT-PARP10 = target: T1, GFP-WT-PARP10 (Homo sapiens, UniProt Q53GL7); settings: up to 100 μM; immunoprecipitated from HEK 293T cells, 6-alkyne-NAD+ substrate
T1 sequence (Q53GL7 1-1025): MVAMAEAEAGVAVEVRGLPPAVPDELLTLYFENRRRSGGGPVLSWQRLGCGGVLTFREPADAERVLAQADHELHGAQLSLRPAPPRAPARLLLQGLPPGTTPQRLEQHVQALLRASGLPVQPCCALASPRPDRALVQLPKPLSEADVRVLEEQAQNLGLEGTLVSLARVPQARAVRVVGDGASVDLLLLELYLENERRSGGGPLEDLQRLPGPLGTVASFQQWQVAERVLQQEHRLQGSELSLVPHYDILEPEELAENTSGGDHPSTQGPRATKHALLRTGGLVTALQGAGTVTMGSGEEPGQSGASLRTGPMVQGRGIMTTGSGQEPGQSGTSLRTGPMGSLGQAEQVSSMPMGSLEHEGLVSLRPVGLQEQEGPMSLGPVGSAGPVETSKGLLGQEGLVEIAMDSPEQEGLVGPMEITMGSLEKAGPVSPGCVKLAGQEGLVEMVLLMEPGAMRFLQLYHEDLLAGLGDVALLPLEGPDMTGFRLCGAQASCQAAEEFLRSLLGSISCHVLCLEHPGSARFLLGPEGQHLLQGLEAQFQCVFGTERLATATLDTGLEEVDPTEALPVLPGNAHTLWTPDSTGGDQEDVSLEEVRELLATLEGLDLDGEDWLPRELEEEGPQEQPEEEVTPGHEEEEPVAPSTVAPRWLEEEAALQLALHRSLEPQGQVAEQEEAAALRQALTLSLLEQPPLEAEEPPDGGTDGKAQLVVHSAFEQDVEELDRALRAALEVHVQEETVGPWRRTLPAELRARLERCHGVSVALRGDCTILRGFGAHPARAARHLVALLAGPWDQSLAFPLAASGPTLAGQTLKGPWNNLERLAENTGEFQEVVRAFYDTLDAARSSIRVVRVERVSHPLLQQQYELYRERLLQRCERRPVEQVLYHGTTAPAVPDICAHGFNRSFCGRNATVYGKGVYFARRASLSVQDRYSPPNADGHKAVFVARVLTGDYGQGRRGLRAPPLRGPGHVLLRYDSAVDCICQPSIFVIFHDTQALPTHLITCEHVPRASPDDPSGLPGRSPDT

Sequence of LG-PARP10cat (Q53GL7 806-1025 L926G): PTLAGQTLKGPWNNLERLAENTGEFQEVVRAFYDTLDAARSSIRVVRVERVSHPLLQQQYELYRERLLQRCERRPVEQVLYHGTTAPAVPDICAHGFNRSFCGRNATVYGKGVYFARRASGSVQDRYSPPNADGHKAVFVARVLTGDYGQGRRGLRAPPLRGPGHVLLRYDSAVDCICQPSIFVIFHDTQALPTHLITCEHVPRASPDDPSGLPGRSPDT
Sequence of GFP-LG-PARP10 (Q53GL7 whole entry L926G): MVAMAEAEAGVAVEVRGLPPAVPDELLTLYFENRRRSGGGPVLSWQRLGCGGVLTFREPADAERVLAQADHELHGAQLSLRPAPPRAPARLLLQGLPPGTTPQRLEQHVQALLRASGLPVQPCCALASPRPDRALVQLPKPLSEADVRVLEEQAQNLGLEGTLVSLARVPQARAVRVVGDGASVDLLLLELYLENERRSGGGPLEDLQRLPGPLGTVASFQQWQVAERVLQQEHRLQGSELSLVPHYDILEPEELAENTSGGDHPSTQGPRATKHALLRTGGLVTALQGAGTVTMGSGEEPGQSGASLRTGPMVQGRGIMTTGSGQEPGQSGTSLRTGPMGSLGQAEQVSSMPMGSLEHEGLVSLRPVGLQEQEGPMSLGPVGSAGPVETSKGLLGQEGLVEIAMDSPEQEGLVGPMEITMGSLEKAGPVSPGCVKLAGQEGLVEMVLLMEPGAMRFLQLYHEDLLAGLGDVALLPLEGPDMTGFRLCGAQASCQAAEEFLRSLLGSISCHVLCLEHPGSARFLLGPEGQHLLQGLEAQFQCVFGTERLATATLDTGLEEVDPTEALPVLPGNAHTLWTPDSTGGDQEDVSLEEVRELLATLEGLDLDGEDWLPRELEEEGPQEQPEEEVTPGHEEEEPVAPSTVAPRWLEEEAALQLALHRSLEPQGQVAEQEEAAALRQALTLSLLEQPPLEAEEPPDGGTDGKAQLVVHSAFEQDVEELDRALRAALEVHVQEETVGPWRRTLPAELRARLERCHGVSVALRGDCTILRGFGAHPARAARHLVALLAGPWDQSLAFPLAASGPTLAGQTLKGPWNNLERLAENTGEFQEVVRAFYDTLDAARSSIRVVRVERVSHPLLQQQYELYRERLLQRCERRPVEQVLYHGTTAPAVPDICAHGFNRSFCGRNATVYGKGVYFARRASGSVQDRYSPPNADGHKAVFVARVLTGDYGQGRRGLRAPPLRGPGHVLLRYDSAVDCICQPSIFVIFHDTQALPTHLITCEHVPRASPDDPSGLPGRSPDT

Row | SMILES | increase in potency against LG-PARP10cat compared to 1 (LG-PARP10cat) | selectivity for LG-PARP10cat versus WT-PARP10cat (LG-PARP10cat; LG- versus WT-PARP10cat) | inhibition of auto-ADP-ribosylation of GFP-LG-PARP10 (GFP-LG-PARP10) | effect on auto-ADP-ribosylation of GFP-WT-PARP10 (GFP-WT-PARP10)
1 | Cc1ccc2c(c1)C(=O)NCC2 [Compound 5] | did not exhibit increased potency | – | – | –
2 | O=C1NCCc2ccc(C(F)(F)F)cc21 [Compound 6] | 2 fold | – | – | –
3 | COc1ccc2c(c1)C(=O)NCC2 [Compound 8] | did not exhibit increased potency | – | – | –
4 | O=C1NCCc2ccc(O)cc21 [Compound 7] | did not exhibit increased potency | – | – | –
5 | O=C1NCCc2ccc(Br)cc21 [Compound 4, 7-Br-dq] | – | greater than 10 fold | inhibited the auto-ADP-ribosylation of GFP-LG-PARP10 in a dose-dependent manner | unaffected
